In ChEMBL document CHEMBL4813957, “Antitubercular properties of thiazolidin-4-ones - A review” (Eur J Med Chem, 2021) one finds MIC and IC90 data, which are given here for six molecules.

Holding throughout (assay type): functional
Assay [1] concerns Mycobacterium tuberculosis variant bovis BCG. The experiment in a line: Antimycobacterial activity against Mycobacterium bovis BCG ATCC 35734 measured on 12th day by nitrate reductase assay. Conditions: ATCC 35734, 288 h, time 12 day.
For assay [2] the test system is unchanged. Nature of the assay: Antimycobacterial activity against Mycobacterium bovis BCG ATCC35743 by nitrate reductase assay.
The subject of assay [3] is Mycobacterium tuberculosis. Nature of the assay: Antimycobacterial activity against multidrug resistant Mycobacterium tuberculosis measured up to 2 weeks. The note with it: 336 h, time weeks <=2.
Assay [4] has as its system Mycobacterium tuberculosis. Nature of the assay: Antimycobacterial activity against ethambutol/pyrazinamide/kanamycin/streptomycin/ofloxacin/moxifloxacin/levofloxacin resistant Mycobacterium tuberculosis measured up to 2 weeks. The note with it: 336 h, time weeks <=2.
Assay [5] relates to Mycobacterium tuberculosis. The experiment in a line: Antimycobacterial activity against extensively drug resistant Mycobacterium tuberculosis measured up to 2 weeks. Conditions: 336 h, time weeks <=2.

In brackets after ≈: the same amount, converted by molar mass.

On to `O=C1CSC(c2ccc(OCc3cc4ccccc4n4nnnc34)cc2)N1c1ccccc1` (stereo not drawn), for which the MIC in assay [1] came to 9.13 µg/mL (≈ 20.1 µM). Take `NC(=O)c1cnccn1` [PYRAZINAMIDE]: the lowest concentration to inhibit growth in assay [1] (MIC) was 20 µg/mL (≈ 162 µM).

Molecule `CCOc1ccc(N2C(=O)CSC2c2ccc(OCc3cc4ccccc4n4nnnc34)cc2)cc1` (stereo not drawn) came in with an MIC in assay [1] of 7.09 µg/mL (≈ 14.2 µM).

In turn, `O=C1CSC(c2ccc(OCc3cc4ccccc4n4nnnc34)cc2)N1c1ccc([N+](=O)[O-])cc1` (stereo not drawn) yielded an MIC in assay [1] of 3.8 µg/mL (≈ 7.62 µM). Turning to `O=C1NC(=S)S/C1=C\c1ccc([N+](=O)[O-])cc1`, in assay [2], the 90% effect level (IC90) was put at 25.7 µg/mL (≈ 96.5 µM). For the molecule `O=C(O)CCCCCC1NC(=O)CS1` (stereo not drawn), the MIC is 0.6 µM (≈ 0.13 µg/mL) in assay [3], 0.2 µM (≈ 0.0435 µg/mL) in assay [4] and 0.096 µM (≈ 0.0209 µg/mL) in assay [5].

The term MIC denotes the smallest concentration in the dilution series that meets the test's criterion for growth inhibition. Read a low MIC as a more susceptible organism. What is called IC90 is the point of the concentration-response curve where the effect stands at 90%. Low readings indicate an effect from little substance, high ones a need for much substance.
